Patent US8242159B2, “1,3-dihydro-5-isobenzofurancarbonitrile derivatives and pharmaceutical composition thereof for the treatment of premature ejaculation” (Dong-A Pharmaceutical. Co., Ltd, priority 2007, dated 2012)

Columns and labels:
[1] = Determination of half-lives of the compounds in rats (oral, plasma HPLC); format: in vivo; settings: rat, male Sprague-Dawley rats, 10 mg/kg (text also says 5 mg/kg), 0.5% methylcellulose
Experimental: The half-lives of present compounds were determined as follows. Each compound was administered orally to male Sprague-Dawley rats weighing approximately 270 g at a dose of 10 mg/kg. 5 mg/kg of each compound was suspended in 0.5% methyl-cellulose and then administered to rats. Blood samples were collected 0.017, 0.083, 0.25, 0.5, 1, 2, 3, 5, 7 and 24 hours after administration, and centrifuged at 1,000 rpm for 3 min to separate plasma. The concentration of each compound in plasma was determined using high performance liquid chromatography, which was performed with a mobile phase of 10 mM ammonium formate (pH 3.0) and acetonitrile (50:50), an […] column (21×100 mm, 3 μm) and a flow rate of 0.2 ml/min.

[2] = tested on: Sprague-Dawley (SD) rats; experiment: Acute toxicity test, single dose, mortality; format: in vivo, rat; set-up: unit not given here
Excerpt: The present derivatives and citalopram were individually administered orally and intra-venously to SD rats at a single dose.

[3] = tested on: Salmonella typhimurium TA98, 100, 1535, 1537, E. coli WP2 uvrA; settings: reported 'in the same test'; which test is not specified; cited from earlier work
[4] = biological target: T1, 5-HT transporter (Homo sapiens, UniProt P31645); experiment: Radioligand competitive binding assay, [3H]Paroxetine; settings: human-derived recombinant HEK-293 cells
T1 construct: expressed in transfected cells; host or cells: HEK-293 cells
Experimental: (§1) In addition, ligand binding to 5HT1A, 5-HT1B and 5-HT2C receptors and 5-HT transporter was evaluated with human-derived recombinant CHO cells, Wistar rat-derived cerebral cortical cells, human-derived recombinant CHO-K1 cells, and human-derived recombinant HEK-293 cells. Each cell line was dosed with 10^−5 μM to 10^4 μM of the compounds of Examples 2, 35, 40 and 45, and then incubated with a radio-labeled ligand for competitive binding. Ligands used were […], [^125I]Cyanopindolol, [^3H]Mesulergine and [^3H]Paroxetine, respectively. The competitive binding assay was carried out in 50 mM Tris-HCl buffer at 25° C. or 37° C., for 60 to 90 min.

[5] = biological target: hERG (human Ether-a-go-go Related Gene) (Homo sapiens, UniProt Q12809); experiment: Cardiotoxicity test, hERG assay (MDS Pharma)
Excerpt: To evaluate the safety of the present derivatives in comparison with control drug, conducted was hERG (human Ether-a-go-go Related Gene) assay which is a representative test of safety medical test. This test was requested to trial institute MDS Pharma., which conducted this test.

[6] = biological target: T2, 5-HT1B receptor (Rattus norvegicus, UniProt P28564); experiment: Radioligand competitive binding assay, [125I]Cyanopindolol; settings: Wistar rat-derived cerebral cortical cells
T2 construct: Wistar rat-derived cerebral cortical cells; from tissue; host or cells: Wistar rat cerebral cortex
Experimental: as §1

[7] = tested on: cellular uptake of norepinephrine; experiment: Cellular reuptake assay, [3H]norepinephrine; format: cell-based; settings: 10 min, MDCK cell line
Experimental: (§2) First, the effects of the present compounds on cellular uptake of dopamine, norepinephrine and serotonin were evaluated with human-derived CHO-1, MDCK and HEK-293 cell lines. Each cell line was dosed with 10^−5 μM to 10^4 μM of the compounds of Examples 2, 35, 40 and 45, and then incubated with [^3H]dopamine, [^3H]norepinephrine and [^3H]serotonin in buffer. After 10 min, the amount of each neurotransmitter taken up into cells was determined by counting radioactivity using a liquid scintillation counter (LSC).

[8] = tested on: CHL (Chinese Hamster Lung) cell; experiment: Mutagenicity test: chromosome aberration test; format: cell-based; settings: 75, 150, 300 μg/ml with metabolic activation; 20, 40, 80 μg/ml without
Experimental: (§3) To evaluate the safety of the present derivatives, mutagenicity test was conducted. Ames test and chromosome aberration test were conducted with the examples 2, 35, 40 and 45.

[9] = biological target: T3, 5-HT2C receptor (Homo sapiens, UniProt P28335); experiment: Radioligand competitive binding assay, [3H]Mesulergine; settings: human-derived recombinant CHO-K1 cells
T3 construct: expressed in transfected cells; host or cells: CHO-K1 cells
T3 sequence (P28335 33-458): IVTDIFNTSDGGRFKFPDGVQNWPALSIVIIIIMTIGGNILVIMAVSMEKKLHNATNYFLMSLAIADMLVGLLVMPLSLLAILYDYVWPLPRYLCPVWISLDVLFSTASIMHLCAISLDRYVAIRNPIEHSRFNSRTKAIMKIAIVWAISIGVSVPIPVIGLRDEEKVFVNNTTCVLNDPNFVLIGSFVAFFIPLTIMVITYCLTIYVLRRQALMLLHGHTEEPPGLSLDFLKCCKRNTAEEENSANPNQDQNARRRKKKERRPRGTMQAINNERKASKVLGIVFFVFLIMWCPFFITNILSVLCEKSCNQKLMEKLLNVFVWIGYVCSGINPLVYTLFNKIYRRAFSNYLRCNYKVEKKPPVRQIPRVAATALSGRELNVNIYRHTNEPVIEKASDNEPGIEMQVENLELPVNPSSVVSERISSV
Experimental: as §1

[10] = tested on: Salmonella typhimurium TA98, 100, 1535, 1537, E. coli WP2 uvrA; experiment: Mutagenicity test: Ames test; format: cell-based; settings: 8, 40, 200, 1000, 2500, 5000 μg/plate, presence/absence of a metabolic activation system
Experimental: as §3

[11] = biological target: T4, 5HT1A receptor (Homo sapiens, UniProt P08908); experiment: Radioligand competitive binding assay; settings: human-derived recombinant CHO cells
T4 construct: expressed in transfected cells; host or cells: CHO cells
T4 sequence (P08908 1-422): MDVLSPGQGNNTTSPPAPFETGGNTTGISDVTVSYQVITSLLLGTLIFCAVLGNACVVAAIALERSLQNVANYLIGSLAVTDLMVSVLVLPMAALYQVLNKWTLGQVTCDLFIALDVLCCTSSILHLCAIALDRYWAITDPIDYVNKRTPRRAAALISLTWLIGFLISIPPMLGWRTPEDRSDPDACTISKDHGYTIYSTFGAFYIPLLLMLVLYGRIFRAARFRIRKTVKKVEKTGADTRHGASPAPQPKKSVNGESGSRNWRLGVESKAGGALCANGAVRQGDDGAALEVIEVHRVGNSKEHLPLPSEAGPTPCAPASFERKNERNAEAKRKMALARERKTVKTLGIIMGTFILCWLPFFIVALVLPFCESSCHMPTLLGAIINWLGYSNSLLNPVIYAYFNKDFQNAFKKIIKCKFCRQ
Experimental: as §1

[12] = tested on: Male Wistar rats; experiment: p-PCA-induced ejaculation in anesthetized rats (ejaculation-delaying effect); format: in vivo, rat; settings: for Ratio: Number of responding animals/total animal number: 50 mg/kg oral in 1% HPMC, p-PCA 5 mg/kg i.p. 80 min later, observed 30 min; for Latency: Time to display the ejaculatory response: 50 mg/kg oral, p-PCA 5 mg/kg i.p., mean ± standard deviation of responding rats
Experimental: The compounds prepared in the above examples were evaluated to determine whether they have an effect of delaying ejaculation. The evaluation was carried out using an animal model according to a method described in Yonezawa et al., Life Sci. 2000, 67(25) p 3031-9. Male Wistar rats weighing 240-260 g were used. Each compound was suspended in 1% HPMC, and then administered orally to each animal. After 60 min, the animals were anesthetized and fixed. 20 min later, para-chloroamphetamine (p-PCA) was intraperitoneally administered in a dose of 5 mg/kg in order to induce ejaculation. […] An ejaculatory response was considered to be elicited when rhythmic contraction of bulbocavernosus muscles and semen discharge occurs. Six or more animals were used for each compound. A Fisher's […] test was performed for the comparison of the proportion of responding rats (ejaculated rats) to determine significance of difference between a treatment group and a vehicle control. The time to reach ejaculation was expressed as mean±standard deviation.
Each test compound was administered at a dose of 50 mg/kg. Ejaculation was elicited in all seven animals of a control group.

[13] = tested on: cellular uptake of serotonin; experiment: Cellular reuptake assay, [3H]serotonin; format: cell-based; settings: Homo sapiens, HEK293, 10 min, HEK-293 cell line
Experimental: as §2

[14] = tested on: cellular uptake of dopamine; experiment: Cellular reuptake assay, [3H]dopamine; format: cell-based; settings: 10 min, CHO-1 cell line
Experimental: as §2

T2 sequence (P28564 whole entry): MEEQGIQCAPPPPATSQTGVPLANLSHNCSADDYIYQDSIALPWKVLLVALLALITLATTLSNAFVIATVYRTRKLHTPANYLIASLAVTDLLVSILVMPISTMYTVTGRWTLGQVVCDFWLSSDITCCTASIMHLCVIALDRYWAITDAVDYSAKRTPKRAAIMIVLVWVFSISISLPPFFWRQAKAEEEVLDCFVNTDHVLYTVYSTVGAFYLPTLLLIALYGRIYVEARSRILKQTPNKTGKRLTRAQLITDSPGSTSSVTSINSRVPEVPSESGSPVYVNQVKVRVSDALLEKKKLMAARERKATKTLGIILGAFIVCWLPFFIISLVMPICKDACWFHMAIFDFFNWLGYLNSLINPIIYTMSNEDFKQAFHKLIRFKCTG
T1 sequence (P31645 whole entry): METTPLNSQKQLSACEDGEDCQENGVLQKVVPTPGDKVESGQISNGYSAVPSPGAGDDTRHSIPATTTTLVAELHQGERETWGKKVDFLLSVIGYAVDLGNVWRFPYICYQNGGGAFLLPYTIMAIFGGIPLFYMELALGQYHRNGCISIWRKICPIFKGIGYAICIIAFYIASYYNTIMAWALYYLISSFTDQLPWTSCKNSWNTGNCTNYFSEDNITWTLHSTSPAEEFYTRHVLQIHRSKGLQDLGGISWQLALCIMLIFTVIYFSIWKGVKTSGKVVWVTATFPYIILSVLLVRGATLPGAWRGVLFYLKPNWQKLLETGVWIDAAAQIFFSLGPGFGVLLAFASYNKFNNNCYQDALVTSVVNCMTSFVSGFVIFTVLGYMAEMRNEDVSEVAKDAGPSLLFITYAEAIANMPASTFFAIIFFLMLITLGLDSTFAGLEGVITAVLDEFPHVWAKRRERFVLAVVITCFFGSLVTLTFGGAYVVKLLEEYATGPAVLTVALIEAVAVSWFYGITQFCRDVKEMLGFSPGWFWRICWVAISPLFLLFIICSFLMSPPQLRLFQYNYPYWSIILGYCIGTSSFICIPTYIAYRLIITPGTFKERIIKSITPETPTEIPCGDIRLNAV
Sequence of hERG (human Ether-a-go-go Related Gene) (Q12809 whole entry): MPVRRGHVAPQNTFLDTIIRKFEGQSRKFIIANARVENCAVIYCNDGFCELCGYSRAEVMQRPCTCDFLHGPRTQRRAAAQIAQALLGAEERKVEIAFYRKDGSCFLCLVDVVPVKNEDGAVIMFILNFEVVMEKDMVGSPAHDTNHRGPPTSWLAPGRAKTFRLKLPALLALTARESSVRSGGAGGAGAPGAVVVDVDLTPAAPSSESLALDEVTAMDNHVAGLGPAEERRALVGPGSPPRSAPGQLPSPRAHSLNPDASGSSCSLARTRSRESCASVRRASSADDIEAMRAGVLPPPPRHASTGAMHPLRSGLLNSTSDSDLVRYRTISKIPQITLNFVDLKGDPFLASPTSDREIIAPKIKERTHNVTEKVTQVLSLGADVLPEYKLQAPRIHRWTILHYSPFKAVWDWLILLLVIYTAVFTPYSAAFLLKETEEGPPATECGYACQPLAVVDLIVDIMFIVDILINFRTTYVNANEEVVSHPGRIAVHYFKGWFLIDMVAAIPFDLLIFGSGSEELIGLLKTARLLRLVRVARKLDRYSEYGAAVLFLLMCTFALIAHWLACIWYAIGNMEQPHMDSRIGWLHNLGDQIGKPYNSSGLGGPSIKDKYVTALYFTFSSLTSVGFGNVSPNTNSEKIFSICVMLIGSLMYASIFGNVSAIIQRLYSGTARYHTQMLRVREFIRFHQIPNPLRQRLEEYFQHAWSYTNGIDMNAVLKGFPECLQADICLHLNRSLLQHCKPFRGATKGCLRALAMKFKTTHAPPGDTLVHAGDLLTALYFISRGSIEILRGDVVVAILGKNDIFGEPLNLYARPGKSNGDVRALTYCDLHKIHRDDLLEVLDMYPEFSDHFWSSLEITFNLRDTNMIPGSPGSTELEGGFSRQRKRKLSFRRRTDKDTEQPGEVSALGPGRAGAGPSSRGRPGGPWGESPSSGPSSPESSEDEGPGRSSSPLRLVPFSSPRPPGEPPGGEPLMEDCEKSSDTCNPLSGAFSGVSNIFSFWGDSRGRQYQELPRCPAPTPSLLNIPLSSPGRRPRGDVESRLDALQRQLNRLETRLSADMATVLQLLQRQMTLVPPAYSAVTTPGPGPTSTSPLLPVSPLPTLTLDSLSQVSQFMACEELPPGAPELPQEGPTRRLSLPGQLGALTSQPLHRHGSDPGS

| SMILES | Tmax [1] | half-life [1] | minimum lethal dose ([2]; Intravenously, female SD rats) | minimum lethal dose ([2]; Intravenously, male SD rats) | minimum lethal dose ([2]; Orally, female SD rats) | minimum lethal dose ([2]; Orally, male SD rats) | mutagenicity test result as reported [3] | IC50 [4] | IC50 [5] | IC50 [6] | IC50 [7] | chromosome aberration test result [8] | IC50 [9] | Ames test result [10] | IC50 [11] | Ratio: Number of responding animals/total animal number [12] | IC50 [13] | IC50 [14] | Latency: Time to display the ejaculatory response [12] |
| --- | --- | --- | --- | --- | --- | --- | --- | --- | --- | --- | --- | --- | --- | --- | --- | --- | --- | --- | --- |
| CN(C)CCCC1(c2ccc(F)cc2)OCc2cc(C#N)ccc21 (stereo not shown) [Citalopram, reference compound] | 19.8 min | 194 min | 30 | 30 | 650 | 650 | positive |  |  |  |  |  |  |  |  |  |  |  |  |
| COc1ccc(C2(CCCN(C)C)OCc3cc(C#N)ccc32)cc1.O=C(O)C(=O)O (stereo not shown) [Ex. 2, 1-{3-(dimethylamino)propyl}-1-(4-methoxyphenyl)-1,3-dihydro-5-isobenzofurancarbonitrile oxalate] | 19.8 min | 76.8 min | 70 | 70 | 1000 | 1000 |  | < 0.0001 µM | 19.4 µM | > 1000 µM | 36.5 µM | negative | 7.12 µM | negative | 805 µM | 0/9 | 0.304 µM | 85.7 µM |  |
| CN(C)CCCC1(c2ccc(N(C)C)cc2)OCc2cc(C#N)ccc21.O=C(O)C(=O)O (stereo not shown) [Ex. 35, 1-(4-dimethylaminophenyl)-1-{3-(dimethylamino)propyl}-1,3-dihydro-5-isobenzofurancarbonitrile oxalate] | 15 min | 211 min | 50 | 50 | 1000 | 1000 |  | 0.001 µM | 12.2 µM | > 1000 µM | 53.2 µM | negative | 898 µM | negative | 1120 µM | 0/9 | 0.425 µM | 100 µM |  |
| CN(C)CCCC1(c2cccs2)OCc2cc(C#N)ccc21.O=C(O)C(=O)O (stereo not shown) [Ex. 40, 1-{3-(dimethylamino)propyl}-1-(2-thienyl)-1,3-dihydro-5-isobenzofurancarbonitrile oxalate] | 15 min | 75.6 min | 50 | 50 | 800 | 800 |  | 0.0125 µM | 8.7 µM | > 1000 µM | 69.1 µM | negative | 10.1 µM | negative | 967 µM | 3/9 | 0.531 µM | 124 µM | 876 ± 110 s |
| N#Cc1ccc2c(c1)COC2(CCCn1ccnc1)c1cccs1.O=C(O)C(=O)O (stereo not shown) [Ex. 45, 1-{3-(imidazole-1-yl)propyl}-1-(2-thienyl)-1,3-dihydro-5-isobenzofurancarbonitrile oxalate] | 15 min | 63.6 min | 50 | 50 | 1000 | 1000 |  | 0.0087 µM | 10.6 µM | > 1000 µM | 67.3 µM | negative | 8.88 µM | negative | 898 µM | 2/9 | 0.465 µM | 94.2 µM | 676 ± 10 s |
| N#Cc1ccc2c(c1)COC2(CCCn1cccn1)c1ccc(Cl)cc1 (stereo not shown) [Ex. 65, 1-(4-chlorophenyl)-1-{3-(pyrazole-1-yl)propyl}-1,3-dihydro-5-isobenzofurancarbonitrile] |  |  |  |  |  |  |  |  |  |  |  |  |  |  |  | 5/9 |  |  | 801 ± 401 s |
| Cl.N#Cc1ccc2c(c1)COC2(CCCn1cccn1)c1ccc(Cl)cc1 (stereo not shown) [Ex. 66, 1-(4-chlorophenyl)-1-{3-(pyrazole-1-yl)propyl}-1,3-dihydro-5-isobenzofurancarbonitrile hydrochloride] |  |  |  |  |  |  |  |  |  |  |  |  |  |  |  | 4/7 |  |  | 960 ± 350 s |
| N#Cc1ccc2c(c1)COC2(CCn1cccn1)c1ccc(Cl)cc1 (stereo not shown) [Ex. 67, 1-(4-chlorophenyl)-1-{2-(pyrazole-1-yl)ethyl}-1,3-dihydro-5-isobenzofurancarbonitrile] |  |  |  |  |  |  |  |  |  |  |  |  |  |  |  | 3/7 |  |  | 853 ± 352 s |
| Cl.N#Cc1ccc2c(c1)COC2(CCn1cccn1)c1ccc(Cl)cc1 (stereo not shown) [Ex. 68, 1-(4-chlorophenyl)-1-{2-(pyrazole-1-yl)ethyl}-1,3-dihydro-5-isobenzofurancarbonitrile hydrochloride] |  |  |  |  |  |  |  |  |  |  |  |  |  |  |  | 4/9 |  |  | 908 ± 274 s |
